Assay results published in publication PMC7822874, “Chemoprotective antimalarials identified through quantitative high-throughput screening of Plasmodium blood and liver stage parasites” (Scientific Reports, 2021).
Values joined by “and” are separate entries in the source; they are usually repeats but may differ in a detail not shown here. Equal entries are not always repeated. Where two headings read alike, the source gives them in different places.

Assays:
[1] = test system: P. falciparum Dd2 (clone B2) asexual blood stage parasites; assay: P. falciparum Dd2 asexual blood stage SYBR Green-I 72 h proliferation assay (qHTS); format: cell-based, Plasmodium falciparum; conditions: Plasmodium falciparum
[2] = test system: P. falciparum Dd2 Cytb G131S; assay: SYBR Green ABS proliferation assay, NCGC00374598 selected clone C11; format: cell-based, Plasmodium falciparum; conditions: for AC50: Plasmodium falciparum
Method in brief: (§1)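 Drug-selected P. falciparum Dd2 clones carrying Cytb mutations, obtained by limiting-dilution cloning, grown in RBCs at 37 °C under 5% CO2/5% O2/90% N2. Growth read by SYBR Green-I fluorescence at 72 h and normalized to controls.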

[3] = test system: P. falciparum Dd2 Cytb V259L; assay: SYBR Green ABS proliferation assay, NCGC00473217 selected clone F06; format: cell-based, Plasmodium falciparum; parameters: log AC50, mean: unit: log M; conditions: for AC50: Plasmodium falciparum
Method in brief: as §1

[4] = test system: P. falciparum Dd2 Cytb A122D; assay: SYBR Green ABS proliferation assay, NCGC00473217 selected clone F12; format: cell-based, Plasmodium falciparum; parameters: log AC50, mean: unit: Log[M]; conditions: for AC50: Plasmodium falciparum
Method in brief: as §1

[5] = test system: P. falciparum Dd2 Cytb F123L; assay: SYBR Green ABS proliferation assay, NCGC00473217 selected clone G08; format: cell-based, Plasmodium falciparum; parameters: log AC50, mean: unit: log10(M); conditions: for AC50: Plasmodium falciparum
Method in brief: as §1

[6] = test system: P. berghei-ANKA-GFP-LucCON liver stage parasites in HepG2-A16-CD81EGFP cells; assay: P. berghei liver stage Pb-Luc assay, Method 1 (UCSD, 1536-well); format: cell-based, Plasmodium berghei; conditions: Method 1; Decrease = decreasing P. berghei viability with dose, Increase = increasing signal, Inactive = no dose response
[7] = test system: luciferase-expressing P. berghei liver stage parasites in HepG2 cells; assay: Inhibition of liver-stage development assay (ILSDA), Method 2 (WRAIR, 96-well); format: cell-based, Plasmodium berghei; conditions: for AC50: Plasmodium berghei; for Activity direction (Decrease / Inactive): P. berghei liver stage
[8] = test system: Plasmodium falciparum Dd2 asexual blood stage parasites; assay: microbe, parasite or virus in culture; parameters: species or system Plasmodium falciparum Dd2 in human erythrocytes; single determination (one 11-point concentration-response curve); conditions: Plasmodium falciparum, DD2, Erythrocyte, 72 h; read-out: AC50
[9] = test system: T1, Plasmodium falciparum Dd2-attB (parental line), asexual blood stages; assay: microbe, parasite or virus in culture; parameters: replicate k of 3 (each line is one of three independent assays; the three lines of one compound and parasite line follow each other); conditions: n = 1; for Individual replicates / Log AC50 (M): 72 h; for AC50: Plasmodium falciparum, DD2, 72 h, read-out: Individual replicates / Log AC50 (converted)
T1 construct: Dd2-attB, the isogenic parental line
Method in brief: (§2)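 Only some compounds were profiled here. Each was assayed three independent times against the Dd2-attB parent and its yeast-DHODH-overexpressing derivative.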

[10] = test system: T2, Plasmodium falciparum Dd2-attB-ScDHODH (transgenic line expressing yeast DHODH), asexual blood stages; assay: organism not typed; parameters: replicate k of 3 (each line is one of three independent assays; the three lines of one compound and parasite line follow each other); conditions: 72 h, n = 1
T2 construct: Dd2-attB-ScDHODH, the transgenic line that expresses yeast DHODH
Method in brief: as §2

[11] = DD2, 72 h, SYBR Green 72 h, WT Dd2-B2, read-out: AC50 Log[M] ± SD, Dd2-B2 (parental line) (converted)
[12] = DD2, Suppl Table 6, read-out: AC50 (mM), WT (Dd2-B2)
[13] = DD2, NCGC00374598 selected clone, read-out: AC50 Log[M] ± SD, Cytb G131S (converted)
[14] = DD2, Suppl Table 6, read-out: AC50 (mM), Dd2 Cytb G131S
[15] = DD2, NCGC00473217 selected clone, read-out: AC50 Log[M] ± SD, Cytb V259L (converted)
[16] = DD2, Suppl Table 6, read-out: AC50 (mM), Dd2 Cytb V259L
[17] = DD2, NCGC00473217 selected clone, read-out: AC50 Log[M] ± SD, Cytb A122D (converted)
[18] = DD2, Suppl Table 6, read-out: AC50 (mM), Dd2 Cytb A122D
[19] = DD2, NCGC00473217 selected clone, read-out: AC50 Log[M] ± SD, Cytb F123L (converted)
[20] = DD2, Suppl Table 6, read-out: AC50 (mM), Dd2 Cytb F123L
[21] = DD2, cytochrome b mutant line, second value triple, c6, […], read-out: log AC50, mean (converted)
[22] = DD2, cytochrome b mutant line, third value triple, c9, […], read-out: log AC50, mean (converted)
[23] = DD2, cytochrome b mutant line, fourth value triple, c12, […], read-out: log AC50, mean (converted)
[24] = DD2, cytochrome b mutant line, fifth value triple, c15, […], read-out: log AC50, mean (converted)
[25] = DD2, Dd2 parental, Hill fit, averaged from three independent replicates, top concentration 29 µM, read-out: Average AC50 (Log[M]), Dd2 (converted)
[26] = DD2, […], averaged from three independent replicates, top concentration 29 µM, read-out: Average AC50 (Log[M]), NCGC00374598 clone C11 (Cytb G131S) (converted)
[27] = DD2, […], averaged from three independent replicates, top concentration 29 µM, read-out: Average AC50 (Log[M]), NCGC00473217 clone F06 (Cytb V259L) (converted)
[28] = DD2, […], averaged from three independent replicates, top concentration 29 µM, read-out: Average AC50 (Log[M]), NCGC00473217 clone F12 (Cytb A122D) (converted)
[29] = DD2, […], averaged from three independent replicates, top concentration 29 µM, read-out: Average AC50 (Log[M]), NCGC00473217 clone G08 (Cytb F123L) (converted)
[30] = HepG2, P. berghei liver stage, Method 2, dose response, read-out: AC50
[31] = HepG2, P. berghei liver stage, Method 2, dose response, read-out: Log AC50 (converted)

SMILES	AC50 [2, 21] [M]	AC50 [3, 22] [M]	AC50 [4, 23] [M]	AC50 [5, 24] [M]	Activity direction (Decrease / Inactive) ([7]; Method 2, dose response)	AC50 [1, 25] [M]	AC50 [2, 26] [M]	AC50 [3, 27] [M]	AC50 [4, 28] [M]	AC50 [5, 29] [M]	other results
O=C1C(O)=C([C@H]2CC[C@H](c3ccc(Cl)cc3)CC2)C(=O)c2ccccc21 [Atovaquone, atovaquone, reference compound]											AC50 [1, 11]: 3.31e-09 M; AC50 [1, 12]: 3.3e-09 M; potency in G131S mutant lines compared to parental line [2]: potency was not compromised; AC50 [2, 13]: 2.19e-09 M; AC50 [2, 14]: 2.2e-09 M; susceptibility of V259L variant compared to parental line [3]: significantly less susceptible; AC50 [3, 15]: 2.34e-08 M; AC50 [3, 16]: 2.34e-08 M; susceptibility of A122D mutant compared to parental line [4]: significantly more susceptible; AC50 [4, 17]: 5.5e-10 M; AC50 [4, 18]: 5.5e-10 M; susceptibility of F123L mutant compared to parental line [5]: significantly more susceptible; AC50 [5, 19]: 8.71e-10 M; AC50 [5, 20]: 9e-10 M
Cc1cc(Nc2ccc(S(F)(F)(F)(F)F)cc2)n2nc(C(C)(F)F)nc2n1 [DSM265, reference compound]											AC50 [1, 11]: 3.8e-08 M; AC50 [1, 12]: 3.8e-08 M; AC50 [2, 13]: 2.4e-08 M; AC50 [2, 14]: 2.4e-08 M; susceptibility of V259L variant compared to parental line [3]: unchanged; AC50 [3, 15]: 3.16e-08 M; AC50 [3, 16]: 3.16e-08 M; susceptibility of A122D mutant compared to parental line [4]: significantly more susceptible; AC50 [4, 17]: 1.41e-08 M; AC50 [4, 18]: 1.41e-08 M; susceptibility of F123L mutant compared to parental line [5]: significantly more susceptible; AC50 [5, 19]: 1.95e-08 M; AC50 [5, 20]: 1.95e-08 M
CC(=O)Nc1ccc(CN2CCc3nc(C(C)C)nc(-c4ccc(Cl)cc4)c3CC2)cc1 [NCGC00374598-01]	4.91e-06	4.91e-06	3.35e-06	7.78e-07							Max Resp (signal direction of the dose response) [6]: Decrease; Max Resp (signal direction of the dose response) ([7]; Method 2, Decrease = decreasing P. berghei viability with dose, Increase = increasing signal, Inactive = no dose response): Decrease; AC50 ([7]; HepG2, Method 2, Hill fit, 50% of maximum activity response, read-out: AC50): 0.501 µM; AC50 ([7]; HepG2, Method 2, log10 of molar AC50 from Hill fit, read-out: Log AC50 (converted)): 0.501 µM; AC50 [8]: 2.66 µM; Individual replicates / Log AC50 (M) [9]: -5.6986 Log AC50 (M) and -5.7986 Log AC50 (M); AC50 [9]: 1.26 µM; Individual replicates / Log AC50 (M) [10]: -5.1486 Log AC50 (M) and -4.9986 Log AC50 (M) and -5.3986 Log AC50 (M)
O=c1[nH]c(N2CCOCC2)nc2c1CCN(Cc1cc(F)c(F)cc1F)CC2 [NCGC00440659-01]	1.14e-05	1.81e-05	1.74e-05	4.91e-06	Inactive						AC50 [8]: 15 µM
O=[S+]([O-])(c1cccs1)N1CCc2nc(C3CC3)nc(-c3ccc(Cl)cc3)c2CC1 [NCGC00476969-01]	7.78e-06	1.19e-05	1.38e-05	1.23e-05	Inactive						
CCc1nc2c(c(-c3ccc(O)cc3)n1)CCN(Cc1ccc(OC(F)(F)F)cc1)CC2 [NCGC00480301-01]	5.11e-06	5.73e-06	6.18e-06	7.78e-06	Inactive						AC50 [8]: 1.5 µM
CC(C)c1nc2c(c(-c3ccc(O)cc3)n1)CCN(Cc1cccc3ccccc13)CC2 [NCGC00480323-01]	4.06e-06	4.55e-06	4.73e-06	4.22e-06	Inactive						
Oc1ccc(-c2nc(C3CC3)nc3c2CCN(CC2CCCCC2)CC3)cc1 [NCGC00480361-01]	6.43e-06				Inactive						log AC50, mean ([3]; cytochrome b mutant line, third value triple, c9, […]): -5.075; log AC50, mean ([4]; cytochrome b mutant line, fourth value triple, c12, […]): -5.009; log AC50, mean ([5]; cytochrome b mutant line, fifth value triple, c15, […]): -5.309; AC50 [8]: 4.73 µM; Individual replicates / Log AC50 (M) [9]: -5.4486 Log AC50 (M) and -5.3986 Log AC50 (M); AC50 [9]: 4.48 µM; Individual replicates / Log AC50 (M) [10]: -5.2486 Log AC50 (M) and -5.1486 Log AC50 (M)
CCCN1C(CC(C)C)=N[S+](=O)([O-])c2cc(NC(=O)c3ccccc3)ccc21 [NCGC00510420-02]						1e-06	4.23e-07	1.12e-06	1.06e-06	2.12e-08	
CC(C)CC1=N[S+](=O)([O-])c2cc(NC(=O)c3ccco3)ccc2N1C [NCGC00510958-01]						5.32e-06	2.82e-06	1.26e-05	5.02e-06	7.96e-07	
CCCN1C(CC(C)C)=N[S+](=O)([O-])c2cc(NC(=O)c3ccc(C)s3)ccc21 [NCGC00510977-01]						8.61e-06	8.93e-06	1.04e-05	7.96e-06	8.93e-06	
CCCN1C(CC(C)C)=N[S+](=O)([O-])c2cc(NC(=O)c3sccc3C)ccc21 [NCGC00521035-01]						1.59e-06	1.65e-06	6.84e-06	2.82e-06	9.46e-06	
CCCN1C(CC(C)C)=N[S+](=O)([O-])c2cc(NC(=O)c3nccs3)ccc21 [NCGC00521040-01]						9.29e-06	8.28e-07	1.31e-05	7.1e-06	6.7e-06	
CCCN1C(CC(C)C)=N[S+](=O)([O-])c2cc(NC(=O)c3ccon3)ccc21 [NCGC00521044-01]						1.26e-05	6.7e-06	7.96e-06	9.46e-06	4.15e-07	
CCCN1C(CC(C)C)=N[S+](=O)([O-])c2cc(NC(=O)c3ccno3)ccc21 [NCGC00521048-01]						6.1e-06	5.02e-06	3.17e-06	4.66e-06	1.89e-07	
CCCN1C(CC(C)C)=N[S+](=O)([O-])c2cc(NC(=O)c3ncco3)ccc21 [NCGC00521053-01]						1.08e-05	1.12e-05	9.66e-06	7.96e-06	1.42e-05	
CCCN1C(CC(C)C)=N[S+](=O)([O-])c2cc(NC(=O)c3cc(C)on3)ccc21 [NCGC00521054-01]						8.93e-06	1.26e-05	2e-06	2e-06	4.48e-06	
CCCN1C(c2ccccc2)=NS(=O)(=O)c2cc(NC(=O)c3ccc(F)cc3)ccc21 [NCGC00532331-01]	7.1e-07	2.33e-06	1.85e-06	3.3e-06	Decrease						AC50 [7, 30]: 17.8 µM; AC50 [7, 31]: 17.8 µM
CCCN1C(c2ccccc2)=NS(=O)(=O)c2cc(NC(=O)c3cccs3)ccc21 [NCGC00532332-01]	8.61e-07	4.32e-06	1.53e-06	2e-06	Decrease						AC50 [7, 30]: 0.035 µM; AC50 [7, 31]: 0.0355 µM
